The source of these data is patent publication EP1299350B1, “SUBSTITUTED BENZAMIDES FOR IMMUNE ENHANCEMENT AND FOR THE TREATMENT OF CANCER, INFECTION AND MANIC-DEPRESSIVE ILLNESS” (Active Biotech AB, priority 2000, dated 2002).

This experiment deals with AP-1. The experiment is described as follows: AP-1-driven luciferase reporter gene assay in Jurkat T cell line (Jurkat/AP-1rep), stimulated with phorbol myristate acetate and ionomycin. It is filed as cell-based. Particulars: Jurkat/AP-1rep cells stimulated for 5.5 h at 37°C with phorbol myristate acetate and ionomycin; luciferase luminescence; Figure 1. On the procedure: The compounds of general formula (I) were assayed for AP-1 enhancement. The compounds of this invention were tested in assays for the modulation of stimulated activity of an AP-1-driven reporter gene in the Jurkat T cell line. The activation of this reporter gene results in luciferase production and the amounts of produced luciferase parallels the level of AP-1 activity. A high level of AP-1 activity is pivotal to e.g. high production of IL-2.
Cells from the Jurkat T cell line were transfected with an AP-1-driven luciferase gene reporter construct (Parra et al., 1997) together with a selection gene vector. Selected clones from the resulting stable AP-1 reporter gene transfectants were used in the assays for AP-1 transcription factor activity. These transfected Jurkat cells (Jurkat/AP-1rep) were grown in RPMI 1640 supplemented with glutamine, hepes, sodium pyruvate, gentamicin, 10% FCS and G418. To evaluate distinct compounds for their capacity to enhance the AP-1 activity, Jurkat/AP-1rep cells were stimulated for 5.5 h in the temperature of 37°C with phorbol myristate acetate and ionomycin in the absence and presence of test compounds. The 96 well plates containing the cell cultures were then put on ice until harvested. […] AP-1 activity was measured as luminiscence produced by luciferase substrate, which was added to the wells in conjunction with measurement.

Consider `CCN(CC)CCCNC(=O)c1ccc(NC(=O)C(C)C)cc1OC` [Compound A, N-[(3-diethylamino)propyl]-4-isobutyrylamino-2-methoxybenzamide], for which the “activity of the AP-1 driven reporter” value is recorded as “enhance the activity of the AP-1 driven reporter in a dose dependent fashion down to µM concentrations”.
